# Test results published in patent publication US20230364084A1, “METHODS FOR PREVENTING OR TREATING CONDITIONS RELATED TO PIKFYVE ACTIVITY” (The Regents of the University of Michigan, priority 2020, published 2023).
# Key:
# DU145 cells = test: cellular vacuolization morphology with autophagy inhibitors; type: cell-based, human; settings: combination with ESK981, six hours
# Text: The nature of the ESK981-associated cellular vacuolization was investigated in combination with various autophagic pathway inhibitors.
# PC3 and DU145 cells = test: autophagic flux detection (GFP-LC3-RFP-LC3ΔG probe); type: cell-based, human; settings: PC3 or DU145 cells, 24 hours
# Procedure: (§1) For autophagic flux detection, 10,000 cells were plated in 96-well plates and incubated with various compounds in complete medium for 24 hours. GFP and RFP fluorescence intensities were measured on a TECAN M1000 plate reader.
# CXCL10 in VCaP cells = test: human CXCL10 ELISA of conditioned medium; type: cell-based; settings: VCaP cells, 24 hours
# Procedure: Conditioned medium was collected after 24 hours of drug incubation. ELISA was performed using a human CXCL10 ELISA kit (Cat No. KAC2361, ThermoFisher), or a mouse CXCL10 ELISA kit (Cat No. ab214563, Abcam) according to the manufacturer's instructions.
# [1] = test system: B cell non-Hodgkin's lymphoma; settings: cited from earlier work
# [2] = test system: lysosomes in VCaP, LNCaP, PC3 and DU145 cells; test: LysoTracker Green flow cytometry; type: cell-based, human; settings: bafilomycin A1 100 nM with ESK981 300 nM, 24 hours
# Procedure: Cells were grown in 6-well plates and treated with various drugs. After 24 hours, cells were stained with LysoTracker® Green DND-26 (Invitrogen), and green fluorescence signal was analyzed by flow cytometry.
# [3] = test system: GFP-LC3-RFP-LC3ΔG-expressing Myc-CaP cells; test: autophagic flux detection in Myc-CaP cells; type: cell-based, mouse; settings: 24 hours
# Procedure: as §1
# [4] = test system: DU145 prostate cancer cells; test: cell viability screen with a 167-compound tyrosine kinase inhibitor library; type: cell-based, human; settings: 300 nM
# Procedure: FIG. 1: ESK981 inhibits the growth of diverse preclinical models of prostate cancer and is associated with a unique vacuolization morphology. • (a) The percentage viabilities of DU145 cells treated with 300 nM ESK981 or 167 other tyrosine kinase inhibitors when compared to a vehicle control. The top five most inhibitory compounds, as well as cabozantinib and crizotinib (highlighted in orange), and their respective targets are listed in the table. ESK981 is highlighted in red. • (b) Morphological differences of nuclear-restricted RFP-expressing DU145 cells treated with 300 nM ESK981, crizotinib, or cabozantinib. • (c) A long-term survival assay was used to calculate the half-maximum inhibitory concentration (IC50) after two weeks of incubation with the serial dilutions of indicated drugs. (Top) Long-term survival assays of VCaP prostate cancer cells exposed to MTKIs. (Bottom) IC50 of ESK981, crizotinib, and cabozantinib in a panel of prostate cancer cell lines. • (d) ESK981 was effective against enzalutamide (Enza)-resistant cell lines. […] Long-term survival (two weeks) was assayed by absorbance of crystal violet at OD590. • (e) VCaP-RFP cells were cultured for three days in ultralow attachment plates to form 3D tumor spheroids prior to the indicated drug treatments. […] Fluorescence intensity of 3D spheroids was measured by IncuCyte ZOOM. • (f) Castration-resistant VCaP tumors were established subcutaneously in castrated SCID mice, and mice were randomized into three groups, which received vehicle, 30 mg/kg, or 60 mg/kg ESK981 by oral gavage once per day for the indicated dosing schedule. Tumor volumes were monitored by a digital caliper twice per week. Data were analyzed by unpaired t test and presented as mean±SEM. *p<0.05; **p<0.01. • (g) AR^+ prostate patient-derived xenograft (PDX) MDA-PCa-146-12 were implanted subcutaneously in non-castrated SCID mice, and mice were randomized into two groups receiving either once daily vehicle or 30 mg/kg ESK981 for five days each week. […] Tumor volumes were monitored twice per week. […]
# [5] = test system: prostate cancer cell lines (VCaP, LNCaP, 22RV1, LNCaP-AR, PC3, DU145); test: long-term survival assay (14 days, crystal violet); type: cell-based, human; settings: panel of prostate cancer cell lines, two weeks
# Procedure: Single cell suspensions were seeded into 96-well plates at a density of 1,000-30,000 cells per well. Long-term survival was determined after 14 days of drug incubation. Viable cells were fixed with 4% formaldehyde and subsequently stained with 1% crystal violet. IC50 was calculated using GraphPad Prism.
# [6] = test system: LC3-II in prostate cancer cell lines; test: LC3 lipidation western blot; type: cell-based, human; settings: VCaP cells, 24 hours
# Procedure: Cell lysates were harvested in Pierce RIPA Lysis buffer (Thermo Scientific) containing protease inhibitor cocktail tablets (Roche) and phosphatase inhibitor cocktail (Millipore). Protein concentration was measured using the DC Protein Assay (Bio-Rad) to ensure an equal amount of protein was loaded onto a gel. The denatured lysates were separated on NuPage 4-12% Bis-Tris Midi Protein gels (Novex) and transferred to 0.45-μm PVDF transfer membrane (Immobilon) using a TransBlot Turbo dry transfer machine (Bio-Rad). The membrane was incubated in blocking buffer (5% non-fat dry milk, Tris-buffered saline with 0.1% Tween 20) for 1 hour at room temperature. The membrane was then incubated with the listed antibodies for 1 hour at room temperature, followed by overnight incubation at 4° C. Chemiluminescent detection using ECL Prime (Amersham) and HyBlot CL autoradiography film (Denville Scientific) was used to visualize the blots. Antibodies used in the immunoblotting assays were against ATG5 (Cat No. 12994S, Cell Signaling Technology), ATG7 (Cat No. 8558S, Cell Signaling Technology), ULK1 (Cat No. 8054S, Cell Signaling Technology), Beclin1 (Cat No. 4122S, Cell Signaling Technology), FIP200 (Cat No. 12436S, Cell Signaling Technology), LC3A/B (Cat No. 127415, Cell Signaling Technology), PIKfyve (Cat No. AF7885, R&D Systems), and GAPDH (Cat No. 3683S, Cell Signaling Technology).
# advanced prostate cancer = settings: two phase III trials; cited from earlier work
# metastatic CRPC (mCRPC) = settings: men with metastatic CRPC; cited from earlier work
compound,measurement,setting,value
Cn1cnc(N)c2ncnc1-2 [3-methyladenine],effect on the cellular vacuolization effects of ESK981,DU145 cells,partially negated
CCC(=O)N1CCN(c2ccc(-n3c(=O)ccc4cnc5ccc(-c6cnc7ccccc7c6)cc5c43)cc2C(F)(F)F)CC1 [Torin1],autophagic flux (GFP/RFP ratio),PC3 and DU145 cells,decreased the GFP/RFP ratio
same,CXCL10 induction / secretion,CXCL10 in VCaP cells,"marginally increased CXCL10 secretion, but only at higher concentrations"
Cc1cccc(/C=N/Nc2cc(N3CCOCC3)nc(OCCc3ccccn3)n2)c1 [apilimod],tumor inhibition,[1],tumor inhibitory effects
CO/C1=C\C(C)=C\[C@@H](C)[C@@H](O)[C@@H](C)C/C(C)=C/C=C/[C@H](OC)[C@@H]([C@@H](C)[C@@H](O)[C@H](C)[C@@]2(O)C[C@@H](O)[C@H](C)[C@@H](C(C)C)O2)OC1=O [bafilomycin A1],effect on the cellular vacuolization effects of ESK981,DU145 cells,completely blocked
same,effect on the ESK981-increased lysosome quantity,[2],readily neutralized
same,autophagic flux (GFP/RFP ratio),PC3 and DU145 cells,low autophagic flux
same,autophagic flux,[3],inhibited
CCN(CC)CCCC(C)Nc1ccnc2cc(Cl)ccc12 (centres unmarked) [chloroquine],effect on the cellular vacuolization effects of ESK981,DU145 cells,completely blocked
same,autophagic flux,[3],inhibited
"C[C@@H](Oc1cc(-c2cnn(C3CCNCC3)c2)cnc1N)c1c(Cl)ccc(F)c1Cl [crizotinib, reference compound]",growth inhibition (cell viability),[4],no such growth inhibitory effects
same,IC50 in words,[5],micromolar
same,induction of LC3-II,[6]; 300 nM,did not induce an increase in LC3-II
same,induction of LC3-II,[6]; 1 μM,only weakly induced an increase in LC3-II
Nc1ccn([C@@H]2O[C@H](CO)[C@@H](O)C2(F)F)c(=O)n1 [gemcitabine],CXCL10 induction / secretion,CXCL10 in VCaP cells,robust CXCL10 inducer
ipilimumab: CTLA4 inhibitor,overall survival,advanced prostate cancer,failed to improve overall survival
pembrolizumab: PD-1 inhibitor,response rates,metastatic CRPC (mCRPC),3-5%
